# Settings: acidic group
row,SMILES,pKa
1,O=c1nc([O-])c2ncn([C@H]3O[C@@H](CO)[C@H](O)[C@@H]3O)c2[nH]1,13
2,O=C1CCC([O-])=C1O,12.9
3,C/C(=N/O)c1ccccc1,11.5
4,O[n+]1ccc(OCc2ccccc2)cc1,1.99
5,O=S(=O)(Nc1ccccc1)C(F)(F)F,4.85
6,Oc1cnc2ccccc2c1,8.06
7,CC[NH+](CC)Cc1cc(Cl)cc(Cl)c1O,5.95
8,Cn1nnnc1CC(=O)O,2.83
9,Cc1nc2c(N)cccc2[nH]1,12.3
10,CCCc1c(-c2ccccc2)nn(-c2ccccc2)c1O,7
11,CNc1nnc(S(N)(=O)=O)s1,7.8
12,CC1(C)C=CC(C)(c2cc3ccc(=O)oc3cc2O)CC1 (centres undefined),8.12
13,O=C(O)CCCc1ccccc1,4.78
14,O/N=C/c1ccco1,10.8
15,Cc1cc(C(O)=C(C#N)C#N)cc(C)c1O,2.55
16,C1COCCOCc2n[nH]c(n2)COCCOCCO1,9.55
17,COC(=S)C1c2ccccc2-c2ccccc21,7.4
18,CC(=O)/C(CN1CCOCC1)=N\O,9.15
19,COc1cc(CO)ccc1O,9.79
20,O/N=C1\CCCCC\C1=N/O,10.7
21,O=C(O)/C=C/c1ccc(O)cc1,4.64
22,C[N+](C)(C)c1cc([N+](=O)[O-])ccc1O,4.35
23,CC(=O)N(C)O,8.73
24,N#CC(C(=O)O)C1CCCCC1 (centres undefined),2.37
25,C[C@H](CCC(=O)O)[C@H]1CC[C@H]2[C@@H]3[C@@H](O)C[C@@H]4C[C@H](O)CC[C@]4(C)[C@H]3CC[C@]12C,5.08

row,SMILES,pKa
1,CC(=O)/C(C[NH+]1CCCCC1)=N\O,7.05
2,O=C1NC(=O)c2ccccc21,9.91
3,COc1cccc(/C=C/C(=O)O)c1,4.38
4,CC(=O)ONc1cc(=O)n(C)c(=O)n1C,7.01
5,O=C(O)c1ccc(CCl)cc1,4.13
6,CCCC[NH+](CCS)CCCC,7.76
7,CC1(C)NC(=S)NC1=O,8.71
8,CCOC(=O)c1c(C)nc(C)c(C(=O)OCC)c1-c1cccc(NS(=O)(=O)c2ccc(N)cc2)c1,9.7
9,Cn1c([O-])nc2nc[nH]c2c1=O,11.9
10,O=C(O)c1c(O)cccc1[N+](=O)[O-],2.24
11,c1cc[n+]2c(c1)C[n+]1ccccc1C2,8.12
12,CC(C)(C(N)=O)S(=O)(=O)NC(N)=O,5.15
13,NCCNC(=O)c1ccccc1,9.13
14,CC(=O)[C@@H]1C[C@H](C(=O)O)C1(C)C,4.63
15,O=Cc1ccccc1O,8.36
16,[NH3+]C/C=C\C(=O)O,3.53
17,S=C(Nc1ccc(Cl)cc1)c1ccc(Cl)cc1,10.2
18,O/N=C/c1ccc2c(c1)OCO2,10.8
19,O=C([O-])[C@H]1O[C@@H]1C(=O)O,3.25
20,O=C(O)CCCP,4.53
21,COc1c(C(=O)O)oc2ccccc12,3.7
22,CCCCC(CC)C(=O)O[C@H]1O[C@@H](C(=O)O)[C@H](O)[C@@H](O)[C@@H]1O (some centres undefined),3.08
23,N#CCC[n+]1ccc(C(N)=O)cc1.[Br-],13.3
24,COC(=O)c1ccccc1S,6.3
25,Cc1cccc(C(=O)O)c1Br,2.9

row,SMILES,pKa
1,O=C1CC(=O)CC2(CCCCC2)C1,5.2
2,CNC(=O)/C=C(/C)C(=O)O,3.23
3,COc1ccc(C(=O)c2cc[nH]n2)cc1,12.1
4,CCc1cc(C)cc(O)c1,10.1
5,Oc1c(Cl)c(Cl)cc(Cl)c1C[NH+]1CCOCC1,4.92
6,CC1(C)CC(=O)C(C=O)C(=O)C1,3.65
7,COc1ccc2c(c1O)-c1c3c(cc4c1[C@H](C2)N(C)CC4)OCO3,10.1
8,CC1(C)O[C@@H]2CC(=O)OC[C@]23[C@@H]1CC(=O)[C@@]1(C)[C@H]3C[C@](C)(CC2CCOC2)C[C@]12O[C@H]2C(=O)O (some centres undefined),2.7
9,CC1=C(O)C(O)=CC1,9.11
10,O=S1(=O)N=CNc2ncccc21,7.03
11,COc1cc(CN)ccc1O,10.5
12,Cc1c(C)c2c(c(C)c1OP(=O)([O-])O)CCC(C)(CCC[C@@H](C)CCC[C@@H](C)CCCC(C)C)O2 (some centres undefined),9.44
13,Nc1cc[nH+]c2c1ncn2CCOCP(=O)(O)O,1.11
14,CCc1cc(Cl)c(O)c(C(=O)NC[C@H]2CCC[NH+]2CC)c1OC,6.91
15,OC(c1ccccc1)c1ccccn1 (centres undefined),12.8
16,C[C@H](C1CC1C(=O)O)[C@H]1CC[C@H]2[C@@H]3[C@@H](O)C[C@@H]4C[C@H](O)CC[C@]4(C)[C@H]3CC[C@]12C (some centres undefined),5.01
17,[O-][N+]([O-])=C(CO)CO,13.5
18,Cn1c(=O)[nH]c(=O)c2[nH]cnc21,8.49
19,CC1(C)S[C@H]2[C@@H](NC(=O)Cc3ccccc3)C(=O)N2[C@@H]1C(=O)O,2.76
20,CC1=NS(=O)(=O)c2ncccc2N1,7.58
21,[NH3+][C@H]1CCCC[C@@H]1C(=O)O,3.59
22,Oc1ccc2cccc(Br)c2c1,8.94
23,NC(=O)C(N)CC(=O)O (centres undefined),7.95
24,N#CCC(=O)NN,11.1
25,O=C1C[C@H](C(=O)O)[C@@H](C(=O)O)O1,2.26

# Same assay, conditions: basic group
row,SMILES,pKa
1,COC(=O)C1=CN2CCC1CC2,7.17
2,Cn1c(N)nc(=O)c2[nH]cnc21,4.61
3,CCCN(CCC)c1ccc([N+](=O)[O-])cc1,1.06
4,COc1ccc(-c2cn3ccnc3[nH]2)c(OC)c1,6.76
5,CC(C)CN(CC(C)O)CC(C)O (centres undefined),8.8
6,NCc1cccc(O)c1O,8.3
7,CC(=O)Nc1ccc(S(=O)(=O)Nc2ccccn2)cc1,2.03
8,Nc1ccc2cc3cc(Cl)ccc3nc2c1,6.95
9,Oc1cnc2ccccc2c1,4.3
10,[O-]c1cnccn1,8.23
11,Nc1cccc(Cl)c1,3.59
12,CCCCCCCNc1ccccc1,5.09
13,CN(C)CCN(C)C,9.15
14,Cc1nc2c(N)cccc2[nH]1,8.1
15,CNC(=S)c1ccccc1,-2.5
16,Cc1ncncc1N,3.15
17,COC(=O)c1ccncc1,3.38
18,CCCC[C@H](N)C(=O)[O-],9.76
19,NCCc1cccnc1,9.44
20,Cc1ccccc1C(=NCCCN(C)C)c1ccccc1C,8.7
21,Cc1ccccc1/C(=N/CCC[NH+](C)C)c1ccc2ccccc2c1,4.54
22,CN(C)c1cccc2cccc([NH+](C)C)c12,-9
23,CCN(CC)Cc1c([O-])c(Cl)cc(Cl)c1Cl,11.8
24,C1COCCOCc2n[nH]c(n2)COCCOCCO1,2.36

row,SMILES,pKa
1,CCOC(=O)c1cccnc1,3.2
2,N[C@H]1CCCC[C@@H]1[NH3+],6.71
3,Cc1cc(N)ccn1,9.44
4,CCN1[C@H](C)[C@@H]1C (some centres undefined),8.57
5,NCCC(=O)NCCc1c[nH]cn1,9.21
6,CC(=O)/C(CN1CCOCC1)=N\O,6.1
7,CCCN(CCC)CC(=O)Nc1c(C)cccc1C,7.68
8,CCCN(CCC)CCc1c[nH]c2ccccc12,8.6
9,C=C(C)[C@H]1CN[C@H](C(=O)[O-])[C@H]1CC(N)=O,9.47
10,Cc1c[nH]c(C)c1,2.04
11,[O-]c1ncnc2cccnc12,8.95
12,COCCc1nc(C)c[nH]1,8.13
13,COc1ccccc1/C(=N/CCC[NH+](C)C)c1ccccc1,4.62
14,CCOC(=O)c1cnc2ccccc2c1[O-],9.62
15,[O-]c1ccc(F)cc1CN1CCCCC1,11.3
16,c1ccc(N=C(Nc2ccccc2)Nc2ccccc2)cc1,9.1
17,[O-]/C(=C/c1ccncc1)c1ccccc1,7.05
18,CC1(C)S[C@H]2C(C(=O)[O-])N=C(CCCC(N)C(=O)[O-])N2C1C(=O)[O-] (some centres undefined),10.3
19,O=C([O-])[C@@H]1CCC[C@H](C(=O)[O-])N1,9.92
20,Cc1ncc2nc(C)c(C)nc2n1,3.76
21,Cn1cnc2ncncc21,2.29
22,NC(=O)CCc1ccccn1,5.09
23,Cc1ccc(CNCC[NH3+])cc1,6.51
24,Nc1ccnc([O-])n1,12.2

row,SMILES,pKa
1,CCN1CCCCC1C (centres undefined),10.7
2,Nc1ccnc(-c2cccc(Cl)n2)c1,7.7
3,CCC(C)C(=O)CCN1CCOCC1 (centres undefined),7.07
4,C1CN(CC[NH+]2CCOCC2)CCO1,3.63
5,CC(=O)n1cnc2ccccc21,1.8
6,NC(=S)c1ccccc1,-3.2
7,CC(C)NCC[NH2+]C(C)C,7.59
8,C#C[C@]1(O)C[C@@H](C)N(C)[C@H]2CCCC[C@@H]21,8.99
9,CC(C)NCC(O)c1cccc(N)c1 (centres undefined),9.6
10,CN(C)CCCC(=O)Oc1ccccc1,9.7
11,CC(C)C(=O)C(C)(C)CN(C)C,9.3
12,CN(C)CC(CSC#N)SC#N (centres undefined),6.1
13,CCOC(=O)N1CCNCC1,8.28
14,CCc1cccc(CN(C)C)c1O,8.02
15,O=C([O-])CSc1nc2cc3ccccc3cc2[nH]1,4.68
16,COc1cc(CN)ccc1O,8.94
17,Cc1cc(-c2ccccc2)nn2c(CN3CCOCC3)cnc12,6.01
18,CC[NH+](CCO)c1ccc(N)cc1,3.04
19,Nc1cc[nH+]c2c1ncn2CCOCP(=O)(O)O,0.05
20,Nc1cccc2ncccc12,5.46
21,OC(c1ccccc1)c1ccccn1 (centres undefined),4.44
22,COc1ccc(C[NH3+])cc1N,4.16
23,CSc1nccc2ccccc12,3.93
24,CC(=O)OC(C)CN(C)C (centres undefined),8.31

row,SMILES,pKa
1,Cc1cc([O-])[nH+]c([O-])n1,9.29
2,N=C(c1ccccc1)c1ccccc1,6.82
3,OC[C@@H]1O[C@H](n2cnc3c([S-])ncnc32)[C@@H](O)[C@H]1O,7.63
4,Cn1c(=O)[nH]c(=O)c2[nH]cnc21,0.78
5,Cc1cc(C)[n+](C)c([S-])n1,3.15
6,C[C@H]1[C@@H]([NH3+])[C@@H](C)[C@@H](N)[C@@H](C)[C@H]1[NH3+],5.15
7,CCCCCCCCCCCCCCN(CC(O)CC)CC(O)CC (centres undefined),5.7
8,Cc1cccc(N)c1C,4.56
9,CN(CCC[NH3+])CCC[NH3+],6.45
10,c1ccc(-c2nc3ccccc3s2)cc1,0.7
11,[O-][n+]1cccc2ccccc21,0.7
12,CCC(=O)C(CC(C)N1CCCCC1)(c1ccccc1)c1ccccc1 (centres undefined),8.58
13,NCCCNCCO,10.3
14,C#CCCCN(C)C,8.88
15,NCC/C=C/C(=O)[O-],9.95
16,CN1CCCC1c1cncc2[nH]c3ccccc3c12 (centres undefined),8.02
17,N#CC(N)c1ccccc1 (centres undefined),4.4
18,Cc1ccc2nc(C)c3c(c2c1)OC(C)C3C (centres undefined),7.65
19,OCCN1CCNCC1,9.33
20,CN(C)c1ccc([N+](=O)[O-])cc1,0.69
21,C[C@H]1CCC2CC[C@H](C)N21,11.7
22,N#CCC(=O)NN,2.34
